ChEMBL document CHEMBL4806962, “Methods and Compositions for Treating Cancer” (2020)
Active and inactive are the calls of the source. The rule behind the calls is not given here.

What was measured:
[1] = Ratio of FC for induction of TNF production in anti-CD3/CD28-stimulated human PBMCs at 1 uM after 24 hrs in presence of PBF-509 and MRS-1754 to FC for induction of TNF production in anti-CD3/CD28-stimulated human PBMCs at 1 uM after 24 hrs in presence of PBF-509 and absence of MRS-1754; type: functional, PBMC
PBMC [2] = test: Effect of compound on human PBMCs assessed as reduction in CTLA4 expression in memory Treg cells after 1 day by flow cytometric analysis; type: functional, cell-based; conditions: dose 0.19-6 µM
Splenocyte [3] = test: Effects of compound on IL-2 production in anti-CD3/CD28-stimulated GPR174 knockdown mouse splenocytes assessed as increase in IL-2 levels at 10 uM after 48 hrs; type: functional, cell-based
[4] = molecular target: T1, Probable G-protein coupled receptor 174 (Homo sapiens, UniProt Q9BXC1); test: Antagonist activity at GPR174 (unknown origin) expressed in HEK293 cells assessed as inhibition of PS-induced GPR174 signaling at 1 to 2 uM incubated for 15 mins by GloSensor assay; type: functional, cell-based; set-up: scale not given: the % may be the effect or the level left; conditions: filed as antagonist, dose 1-2 µM
Splenocyte [5] = test: Effects of compound on IL-2 production in anti-CD3/CD28-stimulated wild type mouse splenocytes assessed as increase in IL-2 levels at 10 uM after 48 hrs; type: functional, cell-based
[6] = Effects of compound on anti-CD3/CD28-stimulated human PBMCs assessed as CD4-positive cells population at 10 uM after 2 days by flow cytometric analysis; type: functional, PBMC; conditions: time 2 day
[7] = molecular target: T1, Probable G-protein coupled receptor 174; test: Inverse agonist activity at GPR174 in anti-CD3/CD28-stimulated human PBMCs assessed as reduction in FoxP3-positive Helios-positive nTreg cells at 100 uM after 7 days by flow cytometric analysis; type: functional, tissue-based; conditions: PBMC, filed as inverse agonist, time 7.0 day
PBMC [8] = test: Effects of compound on INF-gamma production in anti-CD3/CD28-stimulated human PBMCs assessed as fold increase in INF-gamma level at 30 uM after 2 days by ELISA; type: functional; conditions: time 2.0 day
PBMC [9] = test: Effects of compound on IL-2 production in anti-CD3/CD28-stimulated human PBMCs assessed as increase in IL-2 level after 3 days by ELISA; type: functional, tissue-based; conditions: dose 3-60 µM, time 3.0 day

T1 sequence (Q9BXC1 whole entry): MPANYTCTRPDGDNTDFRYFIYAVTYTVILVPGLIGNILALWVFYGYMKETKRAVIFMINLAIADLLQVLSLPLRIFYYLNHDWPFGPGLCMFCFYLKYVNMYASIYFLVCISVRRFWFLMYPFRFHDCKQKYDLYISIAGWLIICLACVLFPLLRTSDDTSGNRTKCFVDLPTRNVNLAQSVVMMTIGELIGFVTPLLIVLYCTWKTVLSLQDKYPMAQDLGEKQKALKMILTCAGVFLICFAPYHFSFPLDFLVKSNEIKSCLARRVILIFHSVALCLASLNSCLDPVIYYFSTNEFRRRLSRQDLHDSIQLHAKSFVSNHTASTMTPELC

## CC1CCN(c2cc(N3CCN(S(=O)(=O)c4ccccc4)CC3)c([N+](=O)[O-])cc2F)CC1
[1]
  Ratio: 1
PBMC [2]
  Activity: Dose-Dependent Effect
Splenocyte [3]
  Activity: inactive
[4]
  Activity: 100%
Splenocyte [5]
  Activity: Active
[6]
  Activity: 31.8%
[7]
  Activity: Active
PBMC [8]
  Activity: Active
PBMC [9]
  Activity: Dose-Dependent Effect
